Results as given in ChEMBL document CHEMBL1132411, “Bis- and mixed-tetrahydroisoquinolinium chlorofumarates: new ultra-short-acting nondepolarizing neuromuscular blockers” (1999).

Experiments:
Assay type in all cases: functional, Cercopithecidae
[1] = system: Monkey; assay: Compound was evaluated for the time from injection to recovery of the twitch to 95% of baseline at the ED95 dose
[2] = system: Monkey; assay: Compound was evaluated for the dose producing 95% suppression of the twitch response in male Rhesus Monkey.
[3] = system: Monkey; assay: Compound was evaluated for the time from injection to peak inhibition of the twitch response at the ED95 dose
[4] = system: Monkey; assay: Compound was evaluated for the time from injection to peak inhibition of the twitch response at 0.2 mg/kg dose
[5] = system: Monkey; assay: Compound was evaluated for the time from injection to recovery of the twitch to 95% of baseline at 0.4 mg/kg dose
[6] = system: Monkey; assay: Compound was evaluated for the time from injection to recovery of the twitch to 95% of baseline at 0.2 mg/kg dose
[7] = system: Monkey; assay: Compound was evaluated for the time from injection to peak inhibition of the twitch response at 0.4 mg/kg dose
[8] = Cercopithecidae, in Macaca mulatta, read-out: ED95

Structure (SMILES) | Duration [1] | ED95 [2, 8] | Onset [3] | also measured
COc1cc2c(cc1OC)[C@@H](Cc1cc(OC)c(OC)c(OC)c1)[N+](C)(CCCOC(=O)CC/C=C/CCC(=O)OCCC[N+]1(C)CCc3cc(OC)c(OC)cc3[C@H]1Cc1cc(OC)c(OC)c(OC)c1)CC2.[Cl-].[Cl-] (stereo partly specified) [MIVACURIUM CHLORIDE] | 12 min | 0.062 mg/kg | 107 s | 
COc1cc2c(cc1OC)[C@@H](Cc1cc(OC)c(OC)c(OC)c1)[N@+](C)(CCCOC(=O)/C=C(\Cl)C(=O)OCCC[N@+]1(C)CCc3cc(OC)c(OC)cc3[C@H]1Cc1cc(OC)c(OC)c(OC)c1)CC2.[Cl-].[Cl-] | 8.7 min | 0.109 mg/kg | 73 s | Onset [4]: 36 s; Duration [5]: 13.4 min; Duration [6]: 9.78 min; Onset [7]: 23 s
COc1cc2c(cc1OC)[C@@H](c1cc(OC)c(OC)c(OC)c1)[N@+](C)(CCCOC(=O)/C=C/C(=O)OCCC[N@+]1(C)CCc3cc(OC)c(OC)cc3[C@H]1c1cc(OC)c(OC)c(OC)c1)CC2.[Cl-].[Cl-] | 25.5 min | 1.55 mg/kg | 144 s | 
COc1cc2c(cc1OC)[C@H](c1cc(OC)c(OC)c(OC)c1)[N@@+](C)(CCCOC(=O)/C=C(\Cl)C(=O)OCCC[N@+]1(C)CCc3cc(OC)c(OC)cc3[C@H]1Cc1cc(OC)c(OC)c(OC)c1)CC2.[Cl-].[Cl-] (stereo in doubt; 6a) [GANTACURIUM CHLORIDE] |  |  | 88 s | ED95 [2]: 0.063 mg/kg; Onset ([4]; 0.2 mg/kg): 38 s; Duration ([5]; 0.4 mg/kg): 10 min; Duration ([6]; 0.2 mg/kg): 8.46 min; Onset ([7]; 0.4 mg/kg): 25 s
COc1cc2c(cc1OC)[C@H](c1cc(OC)c(OC)c(OC)c1)[N@@+](C)(CCCOC(=O)/C(Cl)=C/C(=O)OCCC[N@+]1(C)CCc3cc(OC)c(OC)cc3[C@H]1Cc1cc(OC)c(OC)c(OC)c1)CC2.[Cl-].[Cl-] | 3.4 min | 0.25 mg/kg | 52 s | 
COc1cc2c(cc1OC)[C@H](c1cc(OC)c(OC)c(OC)c1)[N@@+](C)(CCCOC(=O)/C=C(\Cl)C(=O)OCCC[N@+]1(C)CCc3cc(OC)c(OC)cc3[C@H]1Cc1cc(OC)c(OC)c(OC)c1)CC2.[Cl-].[Cl-] (stereo in doubt; 6ab) [GANTACURIUM CHLORIDE] | 5.6 min |  | 51 s | ED95 [2]: 0.163 mg/kg; Onset ([4]; 0.2 mg/kg): 44 s; Duration ([5]; 0.4 mg/kg): 8.7 min; Duration ([6]; 0.2 mg/kg): 7.1 min; Onset ([7]; 0.4 mg/kg): 27 s
COc1cc2c(cc1OC)[C@H](c1cc(OC)c(OC)c(OC)c1)[N@@+](C)(CCCOC(=O)/C=C(\Cl)C(=O)OCCC[N@@+]1(C)CCc3cc(OC)c(OC)cc3[C@@H]1c1cc(OC)c(OC)c(OC)c1)CC2.[Cl-].[Cl-] | 11.2 min | 8.5 mg/kg | 55 s | 
COc1cc2c(cc1OC)[C@@H](c1cc(OC)c(OC)c(OC)c1)[N@+](C)(CCCOC(=O)/C(Cl)=C/C(=O)OCCC[N@+]1(C)CCc3cc(OC)c(OC)cc3[C@H]1Cc1cc(OC)c(OC)c(OC)c1)CC2.[Cl-].[Cl-] | 3.7 min | 0.31 mg/kg | 37 s | 
C[N+](C)(C)CCOC(=O)CCC(=O)OCC[N+](C)(C)C.[Cl-].[Cl-] [SUCCINYLCHOLINE CHLORIDE] | 5 min | 1.29 mg/kg | 50 s | 
COc1cc2c(cc1OC)[C@@H](c1cc(OC)c(OC)c(OC)c1)[N@+](C)(CCCOC(=O)/C=C(\Cl)C(=O)OCCC[N@+]1(C)CCc3cc(OC)c(OC)cc3[C@H]1c1cc(OC)c(OC)c(OC)c1)CC2.[Cl-].[Cl-] | 5.1 min | 1.79 mg/kg | 46 s | 
